According to patent US9399626B2, “2-thiopyrimidinones” (Pfizer Inc., priority 2011, dated 2016):
Where a name gives a salt, the structure may show the parent alone.

Target: T1, MPO (purified from human polynuclear leukocytes) (Homo sapiens, UniProt P05164)
T1 construct: purified from human polynuclear leukocytes; purchased Calbiochem/EMD Biosciences; host or cells: human polynuclear leukocytes (natural source)
Experiment: MPO Amplex Red Activity Assay
Assay type: biochemical
Details: Table 1, 2 μM H2O2, pH 7.4
How it was run: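 Human leukocyte MPO […] oxidises 30 μM Amplex Red with 2 μM H2O2 in 50 mM NaPi pH 7.4, 150 mM NaCl, 1 mM DTPA, 2% DMSO. Resorufin fluorescence (ex 530/em 580 nm) read every 20 s, minus catalase background. kobs from the first 600 s, corrected for auto-inactivation, fit versus [I] for kinact/KI.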

T1 sequence (P05164 279-745 limits assumed): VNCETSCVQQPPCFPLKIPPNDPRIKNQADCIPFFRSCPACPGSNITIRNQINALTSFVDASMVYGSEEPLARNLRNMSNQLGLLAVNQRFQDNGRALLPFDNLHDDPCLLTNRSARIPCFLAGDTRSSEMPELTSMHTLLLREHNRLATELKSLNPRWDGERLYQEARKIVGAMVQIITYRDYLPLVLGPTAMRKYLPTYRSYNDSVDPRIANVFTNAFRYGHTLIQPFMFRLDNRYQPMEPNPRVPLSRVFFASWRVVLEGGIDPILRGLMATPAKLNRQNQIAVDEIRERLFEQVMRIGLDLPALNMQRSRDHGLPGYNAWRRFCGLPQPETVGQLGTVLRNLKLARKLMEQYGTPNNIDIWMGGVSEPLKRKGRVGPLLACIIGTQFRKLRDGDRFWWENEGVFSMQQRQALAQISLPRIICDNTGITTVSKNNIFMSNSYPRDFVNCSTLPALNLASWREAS
T1 sequence (P05164 165-273 limits assumed): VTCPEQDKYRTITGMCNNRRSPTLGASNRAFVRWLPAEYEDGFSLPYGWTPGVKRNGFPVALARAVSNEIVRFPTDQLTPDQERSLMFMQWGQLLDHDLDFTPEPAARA

MPO kinact/Ki | SMILES
3580 1/s per M | NCCCn1c(-c2cccc3ncsc23)cc(=O)[nH]c1=S [Example 72, 1-(3-aminopropyl)-6-(1,3-benzothiazol-7-yl)-2-thioxo-2,3-dihydropyrimidin-4(1H)-one trifluoroacetate]
615 1/s per M | COc1ccc(-c2cc(=O)[nH]c(=S)n2Cc2ccccc2)c(OC)c1 [Example 228, 1-benzyl-6-(2,4-dimethoxyphenyl)-2-thioxo-2,3-dihydropyrimidin-4(1H)-one]
6330 1/s per M | COCCn1c(-c2ccc(OC)c(OC)c2)cc(=O)[nH]c1=S [Example 331, 6-(3,4-dimethoxyphenyl)-1-(2-methoxyethyl)-2-thioxo-2,3-dihydropyrimidin-4(1H)-one]
2060 1/s per M | COCCn1c(-c2ccccc2Cl)cc(=O)[nH]c1=S [Example 299, 6-(2-chlorophenyl)-1-(2-methoxyethyl)-2-thioxo-2,3-dihydropyrimidin-4(1H)-one]
864 1/s per M | COCCn1c(-c2ccc(S(C)(=O)=O)cc2)cc(=O)[nH]c1=S [Example 110, 1-(2-methoxyethyl)-6-[4-(methylsulfonyl)phenyl]-2-thioxo-2,3-dihydropyrimidin-4(1H)-one]
701 1/s per M | COc1ccc(-c2cc(=O)[nH]c(=S)n2CC(=O)OC(C)(C)C)c(OC)c1 [Example 137, tert-butyl[6-(2,4-dimethoxyphenyl)-4-oxo-2-thioxo-3,4-dihydropyrimidin-1(2H)-yl]acetate]
16800 1/s per M | COc1ccccc1-c1cc(=O)[nH]c(=S)n1CCO [Example 156, 1-(2-hydroxyethyl)-6-(2-methoxyphenyl)-2-thioxo-2,3-dihydropyrimidin-4(1H)-one]
5640 1/s per M | COc1ccc(-c2cc(=O)[nH]c(=S)n2CCCCO)c(OC)c1 [Example 196, 6-(2,4-dimethoxyphenyl)-1-(4-hydroxybutyl)-2-thioxo-2,3-dihydropyrimidin-4(1H)-one]
6840 1/s per M | COCCn1c(-c2ccc(OC)cc2Cl)cc(=O)[nH]c1=S [Example 334, 6-(2-chloro-4-methoxyphenyl)-1-(2-methoxyethyl)-2-thioxo-2,3-dihydropyrimidin-4(1H)-one]
2560 1/s per M | COc1ccc(-c2cc(=O)[nH]c(=S)n2CC(C)(C)O)c(OC)c1 [Example 194, 6-(2,4-dimethoxyphenyl)-1-(2-hydroxy-2-methylpropyl)-2-thioxo-2,3-dihydropyrimidin-4(1H)-one]
589 1/s per M | COCCn1c(-c2ccc(C(=O)N(C)C)cc2)cc(=O)[nH]c1=S [Example 336, 4-[3-(2-methoxyethyl)-6-oxo-2-thioxo-1,2,3,6-tetrahydropyrimidin-4-yl]-N,N-dimethylbenzamide]
13100 1/s per M | NCCCn1c(-c2cccc3ccoc23)cc(=O)[nH]c1=S [Example 34, 1-(3-aminopropyl)-6-(1-benzofuran-7-yl)-2-thioxo-2,3-dihydropyrimidin-4(1H)-one hydrochloride]
2480 1/s per M | COc1ccc(-c2cc(=O)[nH]c(=S)n2CC2(O)CCNCC2)c(OC)c1 [Example 252, 6-(2,4-dimethoxyphenyl)-1-[(4-hydroxypiperidin-4-yl)methyl]-2-thioxo-2,3-dihydropyrimidin-4(1H)-one hydrochloride]
1880 1/s per M | COCCn1c(-c2ccc(OC(C)C)cc2)cc(=O)[nH]c1=S [Example 327, 6-(4-isopropoxyphenyl)-1-(2-methoxyethyl)-2-thioxo-2,3-dihydropyrimidin-4(1H)-one]

Continued, compound first:

SMILES | MPO kinact/Ki
COc1ccc(C)cc1-c1cc(=O)[nH]c(=S)n1CCCN [Example 43, 1-(3-aminopropyl)-6-(2-methoxy-5-methylphenyl)-2-thioxo-2,3-dihydropyrimidin-4(1H)-one hydrochloride] | 34600 1/s per M
O=c1cc(-c2cccc3c2OCC3)n(CCO)c(=S)[nH]1 [Example 16, 6-(2,3-dihydro-1-benzofuran-7-yl)-1-(2-hydroxyethyl)-2-thioxo-2,3-dihydropyrimidin-4(1H)-one] | 6510 1/s per M
COc1ccc(-c2cc(=O)[nH]c(=S)n2CCC2CCNCC2)c(OC)c1 [Example 152, 6-(2,4-dimethoxyphenyl)-1-(2-piperidin-4-ylethyl)-2-thioxo-2,3-dihydropyrimidin-4(1H)-one hydrochloride] | 4770 1/s per M
COc1ccc(-c2cc(=O)[nH]c(=S)n2CC(N)=O)c2ccccc12 [Example 205, 2-[6-(4-methoxy-1-naphthyl)-4-oxo-2-thioxo-3,4-dihydropyrimidin-1(2H)-yl]acetamide] | 4900 1/s per M
COc1ccc(Cl)cc1-c1cc(=O)[nH]c(=S)n1CCCNC(=O)CN [Example 149, N-{3-[6-(5-chloro-2-methoxyphenyl)-4-oxo-2-thioxo-3,4-dihydropyrimidin-1(2H)-yl]propyl} glycinamide hydrochloride] | 9770 1/s per M
COc1cc(-c2cc(=O)[nH]c(=S)n2CC(N)=O)c(OC)cc1Cl [Example 229, 2-[6-(4-chloro-2,5-dimethoxyphenyl)-4-oxo-2-thioxo-3,4-dihydropyrimidin-1(2H)-yl]acetamide] | 5900 1/s per M
COc1ncc(Cl)cc1-c1cc(=O)[nH]c(=S)n1CC(N)=O [Example 145, 2-[6-(5-chloro-2-methoxypyridin-3-yl)-4-oxo-2-thioxo-3,4-dihydropyrimidin-1(2H)-yl]acetamide] | 5080 1/s per M
COc1ccc(C)nc1-c1cc(=O)[nH]c(=S)n1CCO [Example 22, 1-(2-hydroxyethyl)-6-(3-methoxy-6-methylpyridin-2-yl)-2-thioxo-2,3-dihydropyrimidin-4(1H)-one] | 6340 1/s per M
COc1ccc(-c2cc(=O)[nH]c(=S)n2CCNCC(N)=O)c(OC)c1 [Example 242, N~2~-{2-[6-(2,4-dimethoxyphenyl)-4-oxo-2-thioxo-3,4-dihydropyrimidin-1(2H)-yl]ethyl}glycinamide] | 142 1/s per M
COc1ccc(-c2cc(=O)[nH]c(=S)n2CCC(=N)N)c(OC)c1 [Example 187, 3-[6-(2,4-dimethoxyphenyl)-4-oxo-2-thioxo-3,4-dihydropyrimidin-1(2H)-yl]propanimidamide trifluoroacetate] | 5640 1/s per M
COCCn1c(-c2ccccc2F)cc(=O)[nH]c1=S [Example 158, 6-(2-fluorophenyl)-1-(2-methoxyethyl)-2-thioxo-2,3-dihydropyrimidin-4(1H)-one] | 1750 1/s per M
COc1ccc(C)cc1-c1cc(=O)[nH]c(=S)n1CCNC(=O)CN [Example 120, N-{2-[6-(2-methoxy-5-methylphenyl)-4-oxo-2-thioxo-3,4-dihydropyrimidin-1(2H)-yl]ethyl} glycinamide hydrochloride] | 9720 1/s per M
COCCn1c(-c2cc(Cl)cnc2OC)cc(=O)[nH]c1=S [Example 96, 6-(5-chloro-2-methoxypyridin-3-yl)-1-(2-methoxyethyl)-2-thioxo-2,3-dihydropyrimidin-4(1H)-one] | 2200 1/s per M
CCOc1ccccc1-c1cc(=O)[nH]c(=S)n1CC1CCCO1 (stereo not drawn) [Example 102, 6-(2-ethoxyphenyl)-1-(tetrahydrofuran-2-ylmethyl)-2-thioxo-2,3-dihydropyrimidin-4(1H)-one] | 4200 1/s per M

Same assay, conditions: Table 1A, 2 μM H2O2, pH 7.4

MPO kinact/Ki | SMILES
4460 1/s per M | COc1ccc(OCCO)cc1-c1cc(=O)[nH]c(=S)n1CC(N)=O [Example 422, 2-{6-[5-(2-hydroxyethoxy)-2-methoxyphenyl]-4-oxo-2-thioxo-3,4-dihydropyrimidin-1(2H)-yl}acetamide]
1710 1/s per M | NC(=O)Cn1c(-c2ccc3c(c2)OCCO3)cc(=O)[nH]c1=S [Example 358, 2-[6-(2,3-dihydro-1,4-benzodioxin-6-yl)-4-oxo-2-thioxo-3,4-dihydropyrimidin-1(2H)-yl]acetamide]
5210 1/s per M | COc1ccc(-c2cc(=O)[nH]c(=S)n2CC(N)=O)c(OCCO)c1 [Example 420, 2-{6-[2-(2-hydroxyethoxy)-4-methoxyphenyl]-4-oxo-2-thioxo-3,4-dihydropyrimidin-1(2H)-yl}acetamide]

Continued, compound first:

SMILES | MPO kinact/Ki
COCCNC(=O)Cn1c(-c2ccc(OC)cc2OC)cc(=O)[nH]c1=S [Example 436, 2-[6-(2,4-dimethoxyphenyl)-4-oxo-2-thioxo-3,4-dihydropyrimidin-1(2H)-yl]-N-(2-methoxyethyl)acetamide] | 3710 1/s per M
COc1ccc(-c2cc(=O)[nH]c(=S)n2CCCNC(=N)N)c(OCCO)c1 [Example 403, 1-(3-{6-[2-(2-hydroxyethoxy)-4-methoxyphenyl]-4-oxo-2-thioxo-3,4-dihydropyrimidin-1(2H)-yl}propyl)guanidine] | 13300 1/s per M
COc1ccc(-c2cc(=O)[nH]c(=S)n2CC(=O)NCCN(C)C)c(OC)c1 [Example 392, 2-[6-(2,4-dimethoxyphenyl)-4-oxo-2-thioxo-3,4-dihydropyrimidin-1(2H)-yl]-N-[2-(dimethylamino)ethyl]acetamide] | 5830 1/s per M
COc1ccc(F)cc1-c1cc(=O)[nH]c(=S)n1CCCNC(=N)N1CC(F)(F)C1 [Example 351, 3,3-Difluoro-N-{3-[6-(5-fluoro-2-methoxyphenyl)-4-oxo-2-thioxo-3,4-dihydropyrimidin-1(2H)-yl]propyl}azetidine-1-carboximidamide] | 7870 1/s per M
COc1ccc(-c2cc(=O)[nH]c(=S)n2CC(=O)NCCNC(=O)[C@H](C)N)c(OC)c1 [Example 399, N-[2-({[6-(2,4-dimethoxyphenyl)-4-oxo-2-thioxo-3,4-dihydropyrimidin-1(2H)-yl]acetyl}amino)ethyl]-L-alaninamide] | 4860 1/s per M
